Where a SMILES comes first, the peptide text is derived from it. Bridges are numbered along the chain shown (N, C = ends). [ ]: non-standard residue; d: D form. NMeR = CN[C@@H](CCCNC(=N)N)C(=O)O; Pen = CC(C)(S)[C@H](N)C(=O)O

The test system of one assay is Integrin alpha-IIb/beta-3 (Canis familiaris). Nature of the assay: Inhibition of canine platelet-rich plasma induced by ADP. Set-up: concentration or dose not given beside the values. Particulars: Canis lupus familiaris, concentration not given here.
By inhibition is commonly meant the relative decrease from the control value, in per cent. In turn, `CC(=O)N[C@@H](Cc1c[nH]cn1)C(=O)N[C@@H](Cc1c[nH]cn1)C(=O)N[C@@H](CC(C)C)C(=O)NCC(=O)NCC(=O)N[C@@H](C)C(=O)N[C@@H](CCCCN)C(=O)N[C@H]1CSSC(C)(C)[C@H](C(N)=O)NC(=O)[C@H](CC(=O)O)NC(=O)CNC(=O)[C@H](CCCN=C(N)N)NC1=O` yielded an inhibition of 100%.

As for `CC(=O)N[C@H]1C(=O)N[C@@H](CCCN=C(N)N)C(=O)NCC(=O)N[C@@H](CC(=O)O)C(=O)N[C@H](C(N)=O)CSSC1(C)C`, the inhibition is 100%. Still for that read-out and setting: in the case of `CC(=O)N[C@H]1C(=O)N(C)[C@@H](CCCN=C(N)N)C(=O)NCC(=O)N[C@@H](CC(=O)O)C(=O)N[C@@H](C(N)=O)C(C)(C)SSC1(C)C` it was 100%. In turn, `CC(=O)N[C@@H]1CSSC[C@H](C(N)=O)NC(=O)[C@@H](CC(=O)O)NC(=O)CNC(=O)[C@@H](CCCN=C(N)N)NC1=O` gave an inhibition of 55%.

`CC(=O)N[C@@H](CCCN=C(N)N)C(=O)NCC(=O)N[C@@H](CC(=O)O)C(=O)N[C@@H](Cc1ccc(O)cc1)C(N)=O` (Ac-RGDY-NH2) showed an inhibition of 98%. The molecule `CC(=O)N[C@@H]1CSSC(C)(C)[C@H](C(N)=O)NC(=O)[C@H](CC(=O)O)NC(=O)CNC(=O)[C@H](CCCN=C(N)N)NC(=O)CNC1=O` registered an inhibition of 100%. On the same count and under the same terms, in the case of `CC(=O)N[C@@H]1CSSC(C)(C)[C@H](C(N)=O)NC(=O)[C@@H](CC(=O)O)NC(=O)CN(C)C(=O)[C@@H](CCCN=C(N)N)NC1=O` it was 57%. Still for that read-out and setting: in the case of `CC(=O)N[C@@H]1CSSC[C@@H](C(N)=O)NC(=O)[C@H](CC(=O)O)NC(=O)CNC(=O)[C@H](CCCN=C(N)N)NC(=O)CNC1=O` it was 100%.

The target in another assay is Integrin alpha-IIb/beta-3 (Homo sapiens, UniProt P05106+P08514). Nature of the assay: Inhibition of 125[I] Fibrinogen binding to isolated purified human fibrinogen receptor.
Chain of Integrin alpha-IIb/beta-3 (P05106 27-788 limits assumed): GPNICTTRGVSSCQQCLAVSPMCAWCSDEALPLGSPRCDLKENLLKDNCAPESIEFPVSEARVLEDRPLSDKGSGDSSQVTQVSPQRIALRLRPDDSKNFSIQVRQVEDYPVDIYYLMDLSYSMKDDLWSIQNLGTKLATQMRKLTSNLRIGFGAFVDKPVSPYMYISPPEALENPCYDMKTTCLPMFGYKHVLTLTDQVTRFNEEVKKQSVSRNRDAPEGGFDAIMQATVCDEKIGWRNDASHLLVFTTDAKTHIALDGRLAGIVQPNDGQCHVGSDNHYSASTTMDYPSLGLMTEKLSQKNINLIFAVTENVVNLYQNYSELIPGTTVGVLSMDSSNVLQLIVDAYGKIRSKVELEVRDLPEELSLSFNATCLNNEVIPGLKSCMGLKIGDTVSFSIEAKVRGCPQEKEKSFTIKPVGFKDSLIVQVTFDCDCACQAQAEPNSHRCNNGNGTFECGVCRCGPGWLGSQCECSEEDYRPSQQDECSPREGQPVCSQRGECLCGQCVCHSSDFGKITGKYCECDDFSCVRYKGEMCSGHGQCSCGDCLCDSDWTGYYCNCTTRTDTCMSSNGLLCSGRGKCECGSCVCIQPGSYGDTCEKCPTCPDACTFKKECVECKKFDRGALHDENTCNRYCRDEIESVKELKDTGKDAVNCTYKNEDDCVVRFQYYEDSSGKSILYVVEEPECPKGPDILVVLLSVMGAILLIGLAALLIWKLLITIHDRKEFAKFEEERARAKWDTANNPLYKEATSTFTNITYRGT
Chain of Integrin alpha-IIb/beta-3 (P08514 32-887 limits assumed): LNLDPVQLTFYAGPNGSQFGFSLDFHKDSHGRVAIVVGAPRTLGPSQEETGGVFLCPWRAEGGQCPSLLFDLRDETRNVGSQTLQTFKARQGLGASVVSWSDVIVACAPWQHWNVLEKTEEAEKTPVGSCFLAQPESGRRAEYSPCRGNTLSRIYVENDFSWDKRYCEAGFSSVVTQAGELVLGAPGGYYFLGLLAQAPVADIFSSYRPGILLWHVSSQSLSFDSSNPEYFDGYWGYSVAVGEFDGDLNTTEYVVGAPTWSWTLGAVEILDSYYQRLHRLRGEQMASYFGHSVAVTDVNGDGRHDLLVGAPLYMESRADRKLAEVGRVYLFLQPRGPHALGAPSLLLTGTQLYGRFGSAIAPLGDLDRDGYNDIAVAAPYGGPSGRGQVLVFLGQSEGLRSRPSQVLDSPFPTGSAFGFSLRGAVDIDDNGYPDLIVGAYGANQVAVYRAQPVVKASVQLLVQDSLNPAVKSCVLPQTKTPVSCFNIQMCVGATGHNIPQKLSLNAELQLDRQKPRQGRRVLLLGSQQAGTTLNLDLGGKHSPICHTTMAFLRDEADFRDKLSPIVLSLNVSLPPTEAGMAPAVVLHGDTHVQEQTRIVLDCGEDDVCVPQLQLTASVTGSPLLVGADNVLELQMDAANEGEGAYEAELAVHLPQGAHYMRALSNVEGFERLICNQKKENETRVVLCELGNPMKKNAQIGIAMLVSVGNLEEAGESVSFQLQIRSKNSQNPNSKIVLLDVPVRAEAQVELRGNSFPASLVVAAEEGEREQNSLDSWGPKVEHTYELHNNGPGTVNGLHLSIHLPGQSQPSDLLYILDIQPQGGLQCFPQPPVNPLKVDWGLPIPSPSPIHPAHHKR
Chain of Integrin alpha-IIb/beta-3 (P08514 891-1039 limits assumed): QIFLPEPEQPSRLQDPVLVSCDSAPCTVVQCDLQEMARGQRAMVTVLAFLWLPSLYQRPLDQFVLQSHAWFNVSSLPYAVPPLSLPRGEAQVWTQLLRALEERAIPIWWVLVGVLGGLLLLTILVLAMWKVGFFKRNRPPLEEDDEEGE
Details: not given
Type of assay: protein-complex assay.
What is called Ki is the dissociation constant of the complex between target and ligand, obtained from inhibition or displacement. `CC(=O)N[C@@H]1CSSC(C)(C)[C@H](C(N)=O)NC(=O)[C@H](CC(=O)O)NC(=O)CNC(=O)[C@@H](CCCNC(=N)N)NC1=O` gave an inhibition constant (Ki) of 720 nM. Molecule `CC(=O)N[C@H]1CSSC[C@@H](C(N)=O)NC(=O)[C@H](CC(=O)O)NC(=O)CNC(=O)[C@H](CCCN=C(N)N)NC1=O` returned a Ki of 780 nM.

In turn, `CC(=O)N[C@H]1CSSC(C)(C)[C@@H](C(N)=O)NC(=O)[C@H](CC(=O)O)NC(=O)CNC(=O)[C@H](CCCN=C(N)N)N(C)C1=O` (Ac-C[NMeR]GD[Pen]-NH2; disulfide 1-5) came in with an inhibition constant Ki of 58 nM.

In the case of `CC(=O)N[C@H]1CSSC[C@@H](C(N)=O)NC(=O)[C@H](CO)NC(=O)[C@H](CC(=O)O)NC(=O)CNC(=O)[C@H](CCCN=C(N)N)NC1=O` (Ac-CRGDSC-NH2; disulfide 1-6), the affinity corresponds to a Ki of 5300 nM. Ac-HHLGGAKQAGDV-OH yielded an inhibition constant Ki of 14500 nM.

The record behind these values is ChEMBL document CHEMBL1125778, “Development of a small RGD peptide fibrinogen receptor antagonist with potent antiaggregatory activity in vitro” (J Med Chem, 1991).
